According to patent publication US7935687B2, “Methods for treating spinal muscular atrophy using tetracycline compounds” (Paratek Pharmaceuticals, Inc., priority 2007, dated 2011):
Where two headings read alike, the source gives them in different places.

Columns and labels:
S. aureus (SA RN450) = test: Antibacterial MIC, gram positive; type: cell-based
E. coli (EC D1-209) = test: Antibacterial MIC, gram negative; type: cell-based
SMN2 mRNA = test: In vitro cell-free splicing assay for inclusion of exon 7; type: biochemical
Procedure: The following example illustrates how tetracycline compound of the invention are active in an in vitro cell-free assay for the inclusion of exon 7 in […] mRNA. SMN1 and SMN2 pre-mRNA were prepared by in vitro transcription using T7 RNA polymerase of minigene templates that include exon 6, a truncated portion of intron 6, exon 7, intron 7 and a portion of exon 8 in the presence of ^32P-UTP. Labeled RNA was purified on a denaturing polyacrylamide gel followed by phenol extraction and ethanol precipitation of the RNA.
In vitro cell-free splicing of SMN1 and SMN2 transcripts was carried out in a 10 μl reaction volume at 30° C. for 3 hours. The reactions contained 10 fmol of labeled pre-mRNA, 30% (3 VI) HeLa cell nuclear extract (in 20 mM HEPES, pH 7.4, 20% (v/v) glycerol, 0.1M KC1, 0.2 mM EDTA), 1.3% (w/v) polyvinyl alcohol, 1.56 mM MgCl2, 32 mM HEPES, pH 7.4, 0.5 mM ATP, 20 mM creatine phosphate and either 2 μl of test compound (in 20 mM HEPES, pH 7.4, 0.1M KC1, 0.2 mM EDTA) or buffer alone. Following incubation, 200 μl of a solution containing 0.3M NaAc and 0.2% SDS was added to the reaction. Proteins were removed by extraction with an equal volume of phenol and RNA was precipitated with 2.5 volumes of ethanol. RNA was resuspended in formamide sample buffer and separated on a 9% urea-denaturing polyacrylamide gel. Quantitation of splicing was based on phosphorimage analysis (Fujix BAS2000 or Fujifilm FLA-5100). In this assay, percentage exon 7 inclusion averages 12% for the unmutated SMN1 mRNA and 4% for the SMN2 mRNA.
The in vitro activities for exon 7 splicing are expressed as the Emax (the maximum percentage exon 7 inclusion observed) and Cmax (the lowest compound concentration at which the maximum inclusion occurs in μM). For Emax, percentage inclusion values of less than 10% are indicated by “*”, values of 10-20% are indicated by “**”, and values greater than 20% are indicated by “***”. For Cmax data, concentrations of greater than 40 μM are indicated by “*”, concentrations between 40 and 10 μM are represented by “**” and concentrations of less than 10 μM are represented by “***”.

[1] = CLSI methodology, 35° C., 18-24 hours
[2] = HeLa cell nuclear extract, 30° C., 3 hours

## CCCCNC(=O)c1cccc(-c2ccc(O)c3c2CC2CC4C(N(C)C)C(O)=C(C(N)=O)C(=O)C4(O)C(O)=C2C3=O)c1 (stereo not shown) [F]
S. aureus (SA RN450); [1]
  MIC Gram Positive (SA RN450): *** (Good antibacterial activity (e.g., less than about 4 μg/mL))
E. coli (EC D1-209); [1]
  MIC Gram Negative (EC D1-209): * (weak antibacterial activity (greater than about 8 μg/mL))

## CN(C)C1C(O)=C(C(N)=O)C(=O)C2(O)C(O)=C3C(=O)c4c(O)ccc(C(=O)CNCc5ccccn5)c4CC3CC12 (stereo not shown) [BY]
S. aureus (SA RN450); [1]
  MIC Gram Positive (SA RN450): *** (Good antibacterial activity (e.g., less than about 4 μg/mL))
E. coli (EC D1-209); [1]
  MIC Gram Negative (EC D1-209): * (weak antibacterial activity (greater than about 8 μg/mL))

## CN(C)C1C(O)=C(C(N)=O)C(=O)C2(O)C(O)=C3C(=O)c4c(O)ccc(C(=O)CN5CCN(C6CCCCC6)CC5)c4CC3CC12 (stereo not shown) [BU]
S. aureus (SA RN450); [1]
  MIC Gram Positive (SA RN450): *** (Good antibacterial activity (e.g., less than about 4 μg/mL))
E. coli (EC D1-209); [1]
  MIC Gram Negative (EC D1-209): *** (Good antibacterial activity (e.g., less than about 4 μg/mL))

## CN(C)CCCNC(=O)c1ccc(-c2ccc(O)c3c2CC2CC4C(N(C)C)C(O)=C(C(N)=O)C(=O)C4(O)C(O)=C2C3=O)cc1 (stereo not shown) [AA]
S. aureus (SA RN450); [1]
  MIC Gram Positive (SA RN450): ** (modest antibacterial activity (between about 4 and 8 μg/mL))
E. coli (EC D1-209); [1]
  MIC Gram Negative (EC D1-209): * (weak antibacterial activity (greater than about 8 μg/mL))

## CN(C)CCC(=O)c1ccc(O)c2c1CC1CC3C(N(C)C)C(O)=C(C(N)=O)C(=O)C3(O)C(O)=C1C2=O (stereo not shown) [AV]
S. aureus (SA RN450); [1]
  MIC Gram Positive (SA RN450): *** (Good antibacterial activity (e.g., less than about 4 μg/mL))
E. coli (EC D1-209); [1]
  MIC Gram Negative (EC D1-209): * (weak antibacterial activity (greater than about 8 μg/mL))

## CN(C)CCCCNCc1cccc(-c2ccc(O)c3c2CC2CC4C(N(C)C)C(O)=C(C(N)=O)C(=O)C4(O)C(O)=C2C3=O)c1 (stereo not shown) [CV]
SMN2 mRNA; [2]
  Cmax (lowest compound concentration at which the maximum exon 7 inclusion occurs): *** (concentrations of less than 10 μM)
  Emax (maximum percentage exon 7 inclusion observed): ** (values of 10-20%)

## CN(C)C1C(O)=C(C(N)=O)C(=O)C2(O)C(O)=C3C(=O)c4c(O)ccc(C(=O)Cn5ccnc5)c4CC3CC12 (stereo not shown) [CF]
S. aureus (SA RN450); [1]
  MIC Gram Positive (SA RN450): ** (modest antibacterial activity (between about 4 and 8 μg/mL))
E. coli (EC D1-209); [1]
  MIC Gram Negative (EC D1-209): * (weak antibacterial activity (greater than about 8 μg/mL))

## CN(C)C1C(O)=C(C(N)=O)C(=O)C2(O)C(O)=C3C(=O)c4c(O)ccc(C(=O)CNCC(C)(C)C)c4CC3CC12 (stereo not shown) [BP]
S. aureus (SA RN450); [1]
  MIC Gram Positive (SA RN450): *** (Good antibacterial activity (e.g., less than about 4 μg/mL))
E. coli (EC D1-209); [1]
  MIC Gram Negative (EC D1-209): * (weak antibacterial activity (greater than about 8 μg/mL))

## COCC(=O)c1ccc(O)c2c1CC1CC3C(N(C)C)C(O)=C(C(N)=O)C(=O)C3(O)C(O)=C1C2=O (stereo not shown) [BW]
S. aureus (SA RN450); [1]
  MIC Gram Positive (SA RN450): *** (Good antibacterial activity (e.g., less than about 4 μg/mL))
E. coli (EC D1-209); [1]
  MIC Gram Negative (EC D1-209): * (weak antibacterial activity (greater than about 8 μg/mL))

## CN(C)c1cc(-c2ccc(CN3CCN(CCO)CC3)o2)c(O)c2c1C[C@H]1C[C@H]3[C@H](N(C)C)C(O)=C(C(N)=O)C(=O)[C@@]3(O)C(O)=C1C2=O [BA]
S. aureus (SA RN450); [1]
  MIC Gram Positive (SA RN450): *** (Good antibacterial activity (e.g., less than about 4 μg/mL))
E. coli (EC D1-209); [1]
  MIC Gram Negative (EC D1-209): * (weak antibacterial activity (greater than about 8 μg/mL))

## COC(=O)c1ccc(-c2ccc(O)c3c2CC2CC4C(N(C)C)C(O)=C(C(N)=O)C(=O)C4(O)C(O)=C2C3=O)cc1 (stereo not shown) [AR]
S. aureus (SA RN450); [1]
  MIC Gram Positive (SA RN450): *** (Good antibacterial activity (e.g., less than about 4 μg/mL))
E. coli (EC D1-209); [1]
  MIC Gram Negative (EC D1-209): * (weak antibacterial activity (greater than about 8 μg/mL))

## CN(C)CCN(C)Cc1cccc(-c2ccc(O)c3c2CC2CC4C(N(C)C)C(O)=C(C(N)=O)C(=O)C4(O)C(O)=C2C3=O)c1 (stereo not shown) [CT]
SMN2 mRNA
  Cmax (lowest compound concentration at which the maximum exon 7 inclusion occurs): ** (concentrations between 40 and 10 μM)
  Emax (maximum percentage exon 7 inclusion observed): ** (values of 10-20%)

## CN1CCN(CC(=O)c2ccc(O)c3c2CC2CC4C(N(C)C)C(O)=C(C(N)=O)C(=O)C4(O)C(O)=C2C3=O)CC1 (stereo not shown) [BB]
S. aureus (SA RN450); [1]
  MIC Gram Positive (SA RN450): *** (Good antibacterial activity (e.g., less than about 4 μg/mL))
E. coli (EC D1-209); [1]
  MIC Gram Negative (EC D1-209): * (weak antibacterial activity (greater than about 8 μg/mL))

## CN1CCN(C(=O)c2cccc(-c3ccc(O)c4c3CC3CC5C(N(C)C)C(O)=C(C(N)=O)C(=O)C5(O)C(O)=C3C4=O)c2)CC1 (stereo not shown) [D]
S. aureus (SA RN450); [1]
  MIC Gram Positive (SA RN450): * (weak antibacterial activity (greater than about 8 μg/mL))
E. coli (EC D1-209); [1]
  MIC Gram Negative (EC D1-209): * (weak antibacterial activity (greater than about 8 μg/mL))

## CN(C)C1C(O)=C(C(N)=O)C(=O)C2(O)C(O)=C3C(=O)c4c(O)ccc(C(=O)CNCC(N)=O)c4CC3CC12 (stereo not shown) [BZ]
S. aureus (SA RN450)
  MIC Gram Positive (SA RN450): ** (key: ***: Good antibacterial activity (e.g., less than about 4 μg/mL); **: modest antibacterial activity (between about 4 and 8 μg/mL); *: weak antibacterial activity (greater than about 8 μg/mL))
E. coli (EC D1-209)
  MIC Gram Negative (EC D1-209): * (key: ***: Good antibacterial activity (e.g., less than about 4 μg/mL); **: modest antibacterial activity (between about 4 and 8 μg/mL); *: weak antibacterial activity (greater than about 8 μg/mL))

## CN(C)CCCN(C)Cc1cccc(-c2ccc(O)c3c2C[C@H]2C[C@H]4[C@H](N(C)C)C(O)=C(C(N)=O)C(=O)[C@@]4(O)C(O)=C2C3=O)c1 [Compound CU, (4S,4aS,5aR,12aS)-4-Dimethylamino-7-(3-{[(3-dimethylamino-propyl)-methyl-amino]-methyl}-phenyl)-3,10,12,12a-tetrahydroxy-1,11-dioxo-1,4,4a,5,5a,6,11,12a-octahydro-naphthacene-2-carboxylic Acid Amide]
SMN2 mRNA; [2]
  Cmax (lowest compound concentration at which the maximum exon 7 inclusion occurs): *** (concentrations of less than 10 μM)
  Emax (maximum percentage exon 7 inclusion observed): ** (values of 10-20%)

## CN(C)C1C(O)=C(C(N)=O)C(=O)C2(O)C(O)=C3C(=O)c4c(O)ccc(-c5cccc(C=CC#N)c5)c4CC3CC12 (stereo not shown) [CO]
SMN2 mRNA; [2]
  Cmax (lowest compound concentration at which the maximum exon 7 inclusion occurs): ** (concentrations between 40 and 10 μM)
  Emax (maximum percentage exon 7 inclusion observed): ** (values of 10-20%)

## CN(C)CCNCc1cccc(-c2ccc(O)c3c2CC2CC4C(N(C)C)C(O)=C(C(N)=O)C(=O)C4(O)C(O)=C2C3=O)c1 (stereo not shown) [CS]
SMN2 mRNA
  Cmax (lowest compound concentration at which the maximum exon 7 inclusion occurs): *** (key: *: concentrations of greater than 40 μM; **: concentrations between 40 and 10 μM; ***: concentrations of less than 10 μM)
  Emax (maximum percentage exon 7 inclusion observed): ** (key: *: percentage inclusion values of less than 10%; **: values of 10-20%; ***: values greater than 20%)

## CN(C)CCCCN(C)Cc1cccc(-c2ccc(O)c3c2CC2CC4C(N(C)C)C(O)=C(C(N)=O)C(=O)C4(O)C(O)=C2C3=O)c1 (stereo not shown) [CW]
SMN2 mRNA; [2]
  Cmax (lowest compound concentration at which the maximum exon 7 inclusion occurs): *** (concentrations of less than 10 μM)
  Emax (maximum percentage exon 7 inclusion observed): ** (values of 10-20%)

## CN(C)C1C(O)=C(C(N)=O)C(=O)C2(O)C(O)=C3C(=O)c4c(O)ccc(-c5cccc(C(=O)NCCN6CCCC6)c5)c4CC3CC12 (stereo not shown) [CR]
SMN2 mRNA
  Cmax (lowest compound concentration at which the maximum exon 7 inclusion occurs): ** (key: *: concentrations of greater than 40 μM; **: concentrations between 40 and 10 μM; ***: concentrations of less than 10 μM)
  Emax (maximum percentage exon 7 inclusion observed): *** (key: *: percentage inclusion values of less than 10%; **: values of 10-20%; ***: values greater than 20%)

## CN(C)CCCNCc1cccc(-c2ccc(O)c3c2CC2CC4C(N(C)C)C(O)=C(C(N)=O)C(=O)C4(O)C(O)=C2C3=O)c1 (stereo not shown) [CX]
SMN2 mRNA
  Cmax (lowest compound concentration at which the maximum exon 7 inclusion occurs): *** (key: *: concentrations of greater than 40 μM; **: concentrations between 40 and 10 μM; ***: concentrations of less than 10 μM)
  Emax (maximum percentage exon 7 inclusion observed): ** (key: *: percentage inclusion values of less than 10%; **: values of 10-20%; ***: values greater than 20%)

## COCCCNC(=O)c1cccc(-c2ccc(O)c3c2CC2CC4C(N(C)C)C(O)=C(C(N)=O)C(=O)C4(O)C(O)=C2C3=O)c1 (stereo not shown) [CQ]
SMN2 mRNA; [2]
  Cmax (lowest compound concentration at which the maximum exon 7 inclusion occurs): * (concentrations of greater than 40 μM)
  Emax (maximum percentage exon 7 inclusion observed): ** (values of 10-20%)

## CN(C)C1C(O)=C(C(N)=O)C(=O)C2(O)C(O)=C3C(=O)c4c(O)ccc(-c5cccc(C(=O)NCCN6CCOCC6)c5)c4CC3CC12 (stereo not shown) [CP]
SMN2 mRNA; [2]
  Cmax (lowest compound concentration at which the maximum exon 7 inclusion occurs): ** (concentrations between 40 and 10 μM)
  Emax (maximum percentage exon 7 inclusion observed): *** (values greater than 20%)
